Patent US4871756A, “Leukotriene antagonists” (Merck Frosst Canada, Inc., priority 1987, dated 1989)

Test system: Leukotriene D4 (ileum contraction induced by LTD4)
Assay: Guinea Pig Ileum Assay for Evaluation of Antagonists of Leukotriene D4 (Inhibition of Ileum Contraction Induced by LTD4)
Assay type: cell-based, guinea pig (male Hartley strain)
Conditions: Cavia porcellus, LTD4 0.3 ng/ml, 30 second pretreatment; for inhibition at 10 µg/mL: 10 μg/ml
Description: The terminal ileum from male Hartley strain guinea pigs (300-500 g) was removed and suspended under 1 g resting tension in Tyrode's solution containing 1.0×10^-6 M atropine sulfate and 1.6×10^-6 M timolol (beta blocker). After a 15-30 minute stabilization period, a standard dose of leukotriene D4 (0.3 ng/ml--final bath concentration)was added repeatedly until consistent and reproducible contractile responses were obtained. Isometric contractions to leukotriene D4 were recorded for 60 seconds and then the tissue was washed and allowed to recove to baseline (2 minutes) before the next dose of leukotriene D4 was added. For testing antagonist compounds, a 30 second pretreatment period was used and the percent inhibition of the control contraction to leukotriene D4 was recorded. A similar procedure was employed for testing active compounds against contractions to a standard dose of histamine (50 ng/ml--final bath concentration).

Q: How did the inhibition at 1 µg/mL (1 μg/ml) turn out when `CCCc1c(OCC2(O)CCCCC2Sc2ccc(C(=O)CCC(=O)O)cc2)ccc(C(C)=O)c1O` [L-649,106] was run?
A: The inhibition at 1 µg/mL was 23%.

Q: And the inhibition at 10 µg/mL?
A: The inhibition at 10 µg/mL was 80%.

Q: Which inhibition at 10 µg/mL does the source give for `CCCc1c(OCC2(Sc3ccc(C(=O)CCC(=O)O)cc3)CCCCC2O)ccc(C(C)=O)c1O` [L-649,107] here?
A: The inhibition at 10 µg/mL was 12%.
